Reference: the NIST ThermoML archive (doi:10.1021/acs.jced.8b00590)
Numbers after ± are expanded uncertainties.

Conditions: Liquid; for vapor or sublimation pressure: Ebulliometric method (Recirculating still); for mass density / viscosity: 101.3 kPa; for mass density: Vibrating tube method; for viscosity: Falling or rolling sphere viscometry

Clc1ccccc1Cl [1,2-dichlorobenzene]
Conditions | vapor or sublimation pressure [kPa]
360.41 K | 4.86 ± 0.2
377.35 K | 9.95 ± 0.4
388.41 K | 14.98 ± 0.61
396.96 K | 20.04 ± 0.42
403.4 K | 24.99 ± 0.53
408.91 K | 30 ± 0.63
414.16 K | 35.02 ± 0.73
418.75 K | 40.02 ± 0.83
422.87 K | 45.05 ± 0.94
429.99 K | 55.03 ± 1.1
433.29 K | 59.97 ± 1.2
438.87 K | 69.93 ± 1.4
443.92 K | 79.98 ± 1.6
448.94 K | 90.2 ± 1.9
451.11 K | 95.11 ± 2
452.62 K | 98.36 ± 2

CCCCC#N [pentanenitrile]
Conditions | mass density [kg/m3] | vapor or sublimation pressure [kPa] | viscosity [mPa·s]
283.15 K | 807.7 ± 2.4 | – | –
293.15 K | 799.1 ± 2.4 | – | 0.7191 ± 0.009
303.15 K | 790.4 ± 2.4 | – | –
313.15 K | 781.7 ± 2.4 | – | 0.5654 ± 0.0071
323.15 K | 772.9 ± 2.3 | – | –
329.35 K | – | 5 ± 0.2 | –
333.15 K | 764.2 ± 2.3 | – | 0.4567 ± 0.0057
344.89 K | – | 9.9 ± 0.4 | –
345.13 K | – | 10 ± 0.4 | –
362.77 K | – | 20 ± 0.4 | –
374.08 K | – | 30 ± 0.6 | –
386.22 K | – | 45 ± 0.9 | –
395.4 K | – | 60 ± 1.3 | –
407.76 K | – | 86.4 ± 1.8 | –
411.12 K | – | 95 ± 2 | –
412.96 K | – | 100 ± 2.1 | –
